Laboratory results reported in US20230055705A1, “SUBSTITUTED THIOPHENE CARBOXAMIDES AND DERIVATIVES THEREOF” (Bayer Aktiengesellschaft, priority 2019, published 2023).

Tests used:
[1] = system: Pseudomonas syringae pv. tomato; experiment: Pseudomonas syringae pv. tomato in vitro cell test; type: cell-based; details: 20 ppm of active ingredient, 24 h incubation, read-out: efficacy (inhibition of bacteria growth)
Procedure: Culture medium: LB broth medium (Luria Broth Miller) Sigma
Inoculum: bacteria suspension
Compounds were solubilized in DMSO and the solution used to prepare the required range of concentrations. The final concentration of DMSO used in the assay was 1%.
(§1) Inoculum was prepared from a pre-culture of bacteria grown in liquid medium and diluted to the desired optical density (OD).
(§2) Compounds were evaluated for their ability to inhibit bacteria growth in liquid culture assay. The compounds were added in the desired concentrations to culture medium containing the bacteria suspension. After 24 h of incubation, the efficacy of compounds was determined by spectrometric measurement of bacteria growth. Inhibition was determined by comparing the absorbance values in wells containing the compounds with the absorbance in control wells without active ingredients.

[2] = system: Xanthomonas campestris pv. campestris; experiment: In vivo preventive test on Xanthomonas campestris pv. campestris (black rot on cabbage); details: evaluated 8 or 10 days after inoculation, read-out: efficacy; for pest or weed control at 125 ppm: 125 ppm of active ingredient; for pest or weed control at 31 ppm: 31 ppm of active ingredient
Outline: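 Young cabbage plants sprayed with compound in acetone/DMSO/Tween diluted in water; solvent-only controls. Leaves sprayed with bacterial suspension 72 h later, then held 8 or 10 days at 27° C and 95% relative humidity. Efficacy scored 8 or 10 days post-inoculation, 0% matching controls, 100% meaning no disease.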

[3] = system: Alternaria alternata; experiment: Alternaria alternata in vitro cell test; type: cell-based; details: 120 h, 20 ppm of active ingredient, 5 days incubation, read-out: efficacy (inhibition of fungal growth)
Procedure: (§3) • Solvent: DMSO • Culture medium: 14.6 g anhydrous D-glucose (VWR), 7.1 g Mycological Peptone (Oxoid), 1.4 g granulated Yeast Extract (Merck), QSP 1 liter • Inoculum: spores suspension
(§4) Fungicides were solubilized in DMSO and the solution used to prepare the required range of concentrations. The final concentration of DMSO used in the assay was ≤[…]1%.
A spore suspension of A. alternata was prepared and diluted to the desired spore density.
(§5) Fungicides were evaluated for their ability to inhibit spore germination and mycelium growth in liquid culture assay. The compounds were added in the desired concentration to the culture medium with spores. After 5 days incubation, fungi-toxicity of compounds was determined by spectrometric measurement of mycelium growth. Inhibition of fungal growth was determined by comparing the absorbance values in wells containing the fungicides with the absorbance in control wells without fungicides.

[4] = system: Peronospora parasitica; experiment: In vivo preventive test on Peronospora parasitica (Crucifer downy mildew); details: Hyaloperonospora parasitica, in Brassica oleracea, 120 h, cabbage, evaluated 5 days after inoculation, read-out: efficacy; for pest or weed control at 31 ppm: 31 ppm of active ingredient; for pest or weed control at 125 ppm: 125 ppm of active ingredient; for pest or weed control at 500 ppm: 500 ppm of active ingredient
Outline: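 Young cabbage plants were sprayed with compound in acetone/DMSO/Tween diluted with water, then inoculated 72 h later with a Peronospora parasitica spore suspension. Plants were kept 5 days at 20 °C and 100% RH. Efficacy was scored with 0% equal to solvent-treated controls and 100% meaning no disease.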

[5] = system: Xanthomonas campestris pv. campestris; experiment: Xanthomonas campestris pv. campestris in vitro cell test; type: cell-based; details: 20 ppm of active ingredient, 24 h incubation, read-out: efficacy (inhibition of bacteria growth)
Procedure: • Solvent: DMSO • Culture medium: LB broth medium (Luria Broth Miller) Sigma • Inoculum: bacteria suspension
Compounds were solubilized in DMSO and the solution used to prepare the required range of concentrations. The final concentration of DMSO used in the assay was ≤1%.
as §1, §2

[6] = LogP by HPLC on reversed phase columns (EEC directive 79/831 Annex V.A8); type: physicochemical; details: reversed phase HPLC columns
Outline: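 LogP derived from retention time by linear interpolation against a C3–C16 alkan-2-one calibration series of known LogP. Measured by HPLC on reversed-phase columns following EEC 79/831 Annex V.A8. UV spectra over 200–400 nm at signal peaks gave lambda-max.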

[7] = system: Uromyces appendiculatus; experiment: In vivo preventive test on Uromyces appendiculatus (bean rust); details: 240 h, evaluated 10 days after inoculation, read-out: efficacy; for pest or weed control at 125 ppm: 125 ppm of active ingredient; for pest or weed control at 500 ppm: 500 ppm of active ingredient
Outline: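 Young bean plants sprayed with compound in acetone/DMSO/Tween diluted in water, inoculated 72 h later with U. appendiculatus spore suspension. Held 24 h at 20 °C, 100% RH, then 9 days at 20 °C, 70-80% RH. Efficacy scored 10 days post-inoculation versus solvent-treated controls (0% = control, 100% = no disease).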

[8] = system: Colletotrichum lindemuthianum; experiment: Colletotrichum lindemuthianum in vitro cell test; type: cell-based; details: 144 h, 20 ppm of active ingredient, 6 days incubation, read-out: efficacy (inhibition of fungal growth)
Procedure: as §3, §4
A spore suspension of C. lindemuthianum was prepared and diluted to the desired spore density.
as §5, with “inhibit spores” for “inhibit spore”, “After 6” for “After 5”

[9] = method [a]: LC-UV, in an acidic range, with 0.1% formic acid in water and acetonitrile as eluent (linear gradient from 10% to 95% acetonitrile)

chromatographic logP [6, 9]	chromatographic logP ([6]; given in the preparation examples, method not marked)	SMILES	inhibition at 20 ppm [1] [%]	pest or weed control at 125 ppm [2] [%]	inhibition at 20 ppm [3] [%]	pest or weed control at 31 ppm [4] [%]	pest or weed control at 125 ppm [4] [%]	pest or weed control at 500 ppm [4] [%]	inhibition at 20 ppm [5] [%]	pest or weed control at 125 ppm [7] [%]	pest or weed control at 500 ppm [7] [%]	inhibition at 20 ppm [8] [%]	pest or weed control at 31 ppm [2] [%]
4.27		CCOC(=O)C(CC(F)(F)F)NC(=O)c1sc(Cl)c(Cl)c1Cl (centres unmarked) [I.048]	≤ 30	90 to 100	≤ 30	90 to 100	90 to 100	90 to 100	≤ 30	90 to 100	90 to 100	≤ 30	
2.16		C[C@H](NC(=O)c1sc(Cl)c(Cl)c1Cl)C(N)=O [I.119]	≤ 30		≤ 30	90 to 100	90 to 100		≤ 30	90 to 100	90 to 100	≤ 30	

More lines, now with the values behind:

SMILES	chromatographic logP [6, 9]	chromatographic logP ([6]; given in the preparation examples, method not marked)	inhibition at 20 ppm [1] [%]	pest or weed control at 125 ppm [2] [%]	inhibition at 20 ppm [3] [%]	pest or weed control at 31 ppm [4] [%]	pest or weed control at 125 ppm [4] [%]	pest or weed control at 500 ppm [4] [%]	inhibition at 20 ppm [5] [%]	pest or weed control at 125 ppm [7] [%]	pest or weed control at 500 ppm [7] [%]	inhibition at 20 ppm [8] [%]	pest or weed control at 31 ppm [2] [%]
CCOC(=O)C(C#N)NC(=O)c1sc(Cl)c(Cl)c1Cl (centres unmarked) [I.009]	3.31		≤ 30	90 to 100	≤ 30	90 to 100	90 to 100	90 to 100	≤ 30	90 to 100	90 to 100	≤ 30	90 to 100
COC(=O)CNC(=S)c1sc(Cl)c(Cl)c1Cl [I.038, methyl N-[(3,4,5-trichloro-2-thienyl)carbonothioyl]glycinate]	4.05	4.05	≤ 30	80 to 89	≤ 30	90 to 100	90 to 100	90 to 100	≤ 30		90 to 100	≤ 30	80 to 89
COC(=O)[C@H](CC(N)=O)NC(=O)c1sc(Cl)c(Cl)c1Cl [I.015]	2.16		≤ 30		≤ 30	90 to 100	90 to 100		≤ 30	80 to 89		≤ 30	90 to 100
CCOC(=O)C(CC(N)=O)NC(=O)c1sc(Cl)c(Cl)c1Cl (centres unmarked) [I.046]	2.35		≤ 30	90 to 100	≤ 30	90 to 100	90 to 100	90 to 100	≤ 30	90 to 100	90 to 100	≤ 30	90 to 100
COC(=O)C(Cc1c[nH]cn1)NC(=O)c1sc(Cl)c(Cl)c1Cl (centres unmarked) [I.012]	1.5		≤ 30			70 to 79	90 to 100	90 to 100	≤ 30		90 to 100	≤ 30	80 to 89
